Source: PubChem BioAssay AID179 (DTP/NCI, 2004)
Several values for one entry are separate records, joined by “and”; a condition that tells them apart may be missing. Equal entries are not always repeated. Activity calls are given as the source filed them.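 How the source made its calls: active means compounds giving half or more protection of infected cells from virus-caused growth loss, again on retest; inactive means the rest.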 Where a SMILES comes first, the peptide text is derived from it. [ ]: non-standard residue; d: D form. The star is where a group is joined. Boc = CC(C)(C)OC(=O)*; Lac = C[CH](O)C(=O)O; OBn = c1ccc(CO*)cc1

Test system: CEM cells HIV-1 protection, formazan growth assay
Experiment: NCI AIDS Antiviral Assay
Settings: for IC50: measured here: growth of uninfected CEM cells
Summary of the method: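 Human CEM cells, uninfected and HIV-1-infected, received five drug concentrations, and growth was read by soluble formazan assay. Compounds giving at least 50% protection were retested; reproducible 100% protection defined confirmed active.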

Row | Compound | EC50 | IC50 | outcome
1 | O=c1oc2ccccc2[n+]([O-])c1-c1ccccc1 | > 1050 µM | > 1050 µM | –
2 | COP(=O)(OC)/C(=C/c1cn(C(C)=O)c2ccccc12)NC(C)=O | > 200 µM | 17.4 µM | –
3 | O=C1CCC2(c3ccc(Cl)cc3)Nc3ncncc3N12 (centres undefined) | > 871 µM | 178 µM | –
4 | FC(F)(F)c1cc(NC2=NCCN=C(Nc3cc(C(F)(F)F)cc(C(F)(F)F)c3)SS2)cc(C(F)(F)F)c1 | > 200 µM | 3.16 µM | –
5 | COC1/C=C/OC2(C)Oc3c(C)c(O)c4c(O)c(cc(OCC(=O)N5CCCCCC5)c4c3C2=O)NC(=O)/C(C)=C\C=C\C(C)C(O)C(C)C(O)C(C)C(OC(C)=O)C1C (centres undefined) | > 200 µM | 39.8 µM | –
6 | O=c1sc2ncccc2n1-c1ccc([N+](=O)[O-])cn1 | > 91.2 µM | > 91.2 µM | –
7 | COC(=O)CC(CNC(=O)OCc1ccccc1)OCc1ccc(OC)cc1 (centres undefined) | > 200 µM | > 200 µM | –
8 | CC12CC3CC(C)(C1)CC(SC(=N)N)(C3)C2 | > 776 µM | 38.9 µM | –
9 | CCCCCCCCCCCCCNC1=C(O)c2ccccc2C(=O)C1=O | – | – | inactive
10 | O=C(/C=C(\S/C=C(/c1ccccc1)N1CCn2c(C(=O)c3ccccc3)c(C(=O)c3ccccc3)c(C(=O)c3ccccc3)c21)C(=O)c1ccccc1)c1ccccc1 | > 200 µM | 37.2 µM | –
11 | COc1ccc(OC(=O)N2C/C(=C\c3ccccc3)C(=O)/C(=C/c3ccccc3)C2)cc1 | – | – | inactive
12 | Cc1ccc(S(=O)(=O)NC(CSSCC(NS(=O)(=O)c2ccc(C)cc2)C(=O)OC(C)(C)C)C(=O)OC(C)(C)C)cc1 (centres undefined) | > 200 µM | > 200 µM | –
13 | CCC(=O)N/N=C(\C=C\c1cccc(O)c1)c1sc(Nc2ccc(C)cc2[N+](=O)[O-])nc1C | > 77.6 µM | > 77.6 µM | –
14 | O=c1cc(N2CCCC2)[nH]c(=O)n1-c1ccccc1 | > 200 µM | > 200 µM | –
15 | CC(C)SC(C)(NC(=O)C1C(C)(C)CCC1(C)C)C(=O)O (centres undefined) | > 200 µM | > 200 µM | –
16 | CC(OC(=O)C(Cc1ccccc1)NC(=O)C(Cc1ccccc1)NC(=O)OC(C)(C)C)C(=O)OCc1ccccc1 (stereo not drawn) (Boc-Phe-Phe-[Lac]-OBn; configuration not given here) | > 200 µM | 105 µM | –
17 | N#Cc1cc2c(cc1C#N)SCCSCCCSCCS2 | – | – | inactive
18 | Cc1ccc(-c2c3nc(c(-c4ccc(C)cc4)c4ccc([nH]4)c(-c4ccc(C)cc4)c4nc(c(-c5ccncc5)c5ccc2[nH]5)C=C4)C=C3)cc1.Cc1ccc(-c2c3nc(c(-c4ccc(C)cc4)c4ccc([nH]4)c(-c4ccc(C)cc4)c4nc(c(-c5ccncc5)c5ccc2[nH]5)C=C4)C=C3)cc1.Cc1ccc(-c2c3nc(c(-c4ccc(C)cc4)c4ccc([nH]4)c(-c4ccc(C)cc4)c4nc(c(-c5ccncc5)c5ccc2[nH]5)C=C4)C=C3)cc1.Cc1ccc(-c2c3nc(c(-c4ccc(C)cc4)c4ccc([nH]4)c(-c4ccc(C)cc4)c4nc(c(-c5ccncc5)c5ccc2[nH]5)C=C4)C=C3)cc1.O=S(=O)([O-])C(F)(F)F.[Pd] | > 25.1 µM | > 25.1 µM | –
19 | OC1CCSc2ccccc21 (centres undefined) | > 200 µM | > 200 µM | –
20 | Cc1cc2c(=O)cc(-c3ccccc3Cl)oc2c(C#N)c1C | > 100 µM | > 100 µM | –
21 | CCOC(=O)NP(=O)(Nc1ccccc1)Nc1ccccc1 | > 200 µM | > 200 µM | –

Row | Compound | EC50 | IC50 | outcome
22 | Cc1cc(O)c(C=NC(=S)c2cccnc2)c(=O)o1 | > 200 µM | 77.6 µM | –
23 | CCC1=C2C(=O)c3ccccc3C2=C(C)S(=O)(=O)O1 | 257 µM | 263 µM | –
24 | Cn1c(=O)nc2n(-c3cc(C(F)(F)F)cc(C(F)(F)F)c3)c3ccccc3nc-2c1=O | – | – | inactive
25 | ClCCCC1COc2ccccc2O1 (centres undefined) | > 200 µM | > 200 µM | –
26 | NC(=O)NCCC[C@H](NC(=O)[C@H](CS)NC(=O)[C@@H](N)Cc1cnc[nH]1)C(=O)N[C@H](Cc1ccccc1)C(=O)N[C@@H](Cc1c[nH]c2ccccc12)C(=O)N[C@@H](Cc1c[nH]c2ccccc12)C(N)=O | > 200 µM | > 200 µM | –
27 | CC(C)NC(=O)OCCN=C1c2ccccc2CCc2ccccc21 | > 200 µM | 27.5 µM | –
28 | CCOP(=O)(OCC)/C(C#N)=C/c1ccc(Oc2ccccc2)cc1 | > 20.4 µM | > 20.4 µM | –
29 | CC(=O)OC1(C)C(=O)OC1(C)C(C)=O (centres undefined) | – | – | inactive
30 | CC1CCC2C(C)C3C(CC4C5CC=C6CC(O)CCC6(C)C5CCC43COC(=O)c3ccccc3)N2C1 (centres undefined) | > 69.2 µM | > 69.2 µM | –
31 | O=c1[nH]c2cnn(-c3ccccc3)c2c(=O)n1OS(=O)(=O)c1ccccc1 | > 200 µM | > 200 µM | –
32 | N#CCCC(C=O)(CCC#N)CCC#N | > 200 µM | > 200 µM | –
33 | O=C1OCCOC(=O)c2cccc(n2)C(=O)OCCOC(=O)c2cccc1n2 | 22.9 µM | 25.7 µM | –
34 | C=C1C(=O)[C@@]23C(O)C[C@@H]4C(C)(C)CCCC4(COC(C)=O)[C@@H]2[C@@H](O)C[C@@H]1[C@H]3O (some centres undefined) | > 631 µM | 1.95 µM and 1.02 µM | –
35 | Cc1ccc2c(c1)NC(=O)CC(c1ccccc1)=N2 | > 200 µM | 115 µM | –
36 | CN(CCC#N)C1=CCCC1 | > 200 µM | > 200 µM | –
37 | CCCCCCC(O)CCCC(O)C1CCC(C2CCC(C(O)CCCCCCCCCCCCC3=CC(C)OC3=O)O2)O1 (centres undefined) | – | – | inactive
38 | Cc1cc(=O)oc2cc(O)cc(O)c12 | > 1290 µM | 166 µM | –
39 | O=[N+]([O-])c1ccccc1-c1nc2nc(N3CCOCC3)nc(N3CCOCC3)n2n1 | > 77.6 µM | 52.5 µM | –
40 | CCOc1ccc(Nc2nc(C)c(C(=O)CC(=O)C(=O)Nc3ccc(C(C)C)cc3C(C)C)s2)cc1 | > 200 µM | 105 µM | –
41 | Cc1cc2c(c(C(C)(C)C)c1)O[P+](=O)Oc1c(cc(C)cc1C(C)(C)C)C2 | > 18.6 µM | > 18.6 µM | –
42 | CN(c1ccccc1)S(=O)(=O)c1ccccc1[N+](=O)[O-] | > 200 µM | 64.6 µM | –

Row | Compound | EC50 | IC50 | outcome
43 | Fc1ccc2nncc(SCc3ccccc3)c2c1 | > 132 µM | 19.5 µM | –
44 | O=C1C2CC=CCC2C(=O)N1n1c(Cc2ccc(Cl)cc2)n[nH]c1=O (centres undefined) | > 200 µM | > 200 µM | –
45 | O=C(NCCCCCCNC(=O)c1ccccn1)c1ccccn1 | > 200 µM | 191 µM | –
46 | OC1CC2CCC(C1)S2 (centres undefined) | > 200 µM | > 200 µM | –
47 | Cc1ccccc1-n1c(=S)n(-c2ccccn2)c2nc3ccccc3nc1/c2=N/Nc1ccccn1 | > 162 µM | – | –
48 | CC[C@@]1(C(=O)OC)C=CCN2C(=O)OC(C)(C)C21 (some centres undefined) | – | – | inactive
49 | COC1=CC(=O)C2C(C1=O)C(c1ccccc1)[C@H]2C (some centres undefined) | > 372 µM | 22.9 µM | –
50 | Cc1cc(C2(c3cc(C)c(O)cc3C)OS(=O)(=O)c3ccccc32)c(C)cc1O | – | – | inactive
51 | CCOc1ccc(NC(=S)N/C=C(/C#N)C(N)=O)cc1 | > 200 µM | 158 µM | –
52 | CC(C)(C)COC1C2(OCCO2)C2CCC1(C)C2(C)C (centres undefined) | > 200 µM | > 200 µM | –
53 | CC12CC3(C)SC(C)(CC(C)(S1)S2)S3 | – | – | inactive
54 | COC(=O)C1C(=O)C(C(=O)OC)C2(C)C(C(=O)OC)C(=O)C(C(=O)OC)C12 (centres undefined) | > 468 µM | > 468 µM | –
55 | CCOC(=O)c1cc(C(=O)OCC)c2ccccn2c1=O | > 100 µM | 43.7 µM | –
56 | COc1ccc(OCC(=O)O)c2c1CCC(C)C2=O (centres undefined) | – | – | inactive
57 | COc1ccc(CC[N+](C)(C)C)cc1 | > 200 µM | > 200 µM | –
58 | CCCCCC(/C=C/c1ncccc1OCCCCCC(=O)O)=N\NC1=NCCN1 | > 44.7 µM | > 44.7 µM | –
59 | CCN1c2ccccc2NC(=S)c2c1n[nH]c2-c1ccccc1 | > 200 µM | 53.7 µM | –
60 | CC1CCC(=O)C(C(=O)CC2CC(=O)N(C)C(=O)C2)C1 (centres undefined) | > 126 µM | > 126 µM | –
61 | O=C(O)c1ccccc1C(=O)NC(Cc1ccccc1)(C(=O)O)C(=O)O | > 200 µM | > 200 µM | –
62 | O=[N+]([O-])c1ccccc1OCCOc1ccccc1[N+](=O)[O-] | > 200 µM | > 200 µM | –
63 | C=CCNc1nc2c(s1)C(=O)c1ccccc1C2=O | > 13.8 µM | 8.32 µM | –

Row | Compound | EC50 | IC50 | outcome
64 | Cc1c(C(=O)C(=O)c2ccccc2)c(C)c(C(=O)C(=O)c2ccccc2)c(C)c1C(=O)C(=O)c1ccccc1 | > 200 µM | > 200 µM | –
65 | N.N.N.N.[Co+3].[O-][Cl+3]([O-])([O-])[O-].[OH3+].[OH3+] | – | – | inactive
66 | OCCN1CCN(CCCN2c3ccccc3Sc3ccc(C(F)(F)F)cc32)CC1 | > 200 µM | 10.2 µM | –
67 | N#CCCC1C(C#N)C2CC1C1C3C=CC(C3)C21 (centres undefined) | > 200 µM | > 200 µM | –
68 | COc1ccc(-c2c(C#N)c(=O)nc(SC)n2C2OCC(OC(C)=O)C(OC(C)=O)C2OC(C)=O)cc1 (centres undefined) | > 200 µM | 35.5 µM | –
69 | O=C(O)[C@@H]1CSC(c2ccc(Cl)cc2)N1 (some centres undefined) | > 200 µM | > 200 µM | –
70 | O=C1/C(=C/c2ccccc2)CN(C(=O)OCC(Cl)(Cl)Cl)C/C1=C\c1ccccc1 | – | – | inactive
71 | Cc1cc(C)nc(NS(=O)(=O)c2ccc(NCN3C(=O)c4ccccc4C3=O)cc2)n1 | > 200 µM | 110 µM | –
72 | Cc1cn(C2CCC(CO)O2)c(=O)[nH]c1=O (centres undefined) | 162 µM | > 200 µM | –
73 | COc1ccc(C(=O)CCC(NC(C)=O)C(=O)O)cc1 (centres undefined) | > 100 µM | > 100 µM | –
74 | O=C1CC(=O)N(CCc2ccncc2)C(=O)N1CCc1ccncc1 | – | > 200 µM | inactive
75 | COc1nc(NC2OC(COC(C)=O)C(OC(C)=O)C(OC(C)=O)C2OC(C)=O)c(-c2csc(N)n2)c(=O)n1C (centres undefined) | > 6.17 µM | > 6.17 µM | –
76 | C=C1[C@H](OC(=O)C(C)C)[C@]23CC4(O)[C@@H]5[C@@]6(C)CCC[C@]57C([C@@H]2C[C@@]1(O)[C@H](O)[C@@H]73)N4C6 | 61.7 µM | > 200 µM | –
77 | COC(=O)CC1C2CCC1C(=O)C2 (centres undefined) | > 200 µM | > 200 µM | –
78 | Cc1cccc(C(C)C)c1NC(=O)C(=O)CC(=O)c1sc(Nc2ccccc2Cl)nc1C | > 200 µM | > 200 µM | –
79 | CCOC(=O)/C=C/n1cc(C)c(=O)[nH]c1=O | > 224 µM | 117 µM | –
80 | Cc1cc(C)c(S(=O)(=O)N(CCCN)OCCCN)c(C)c1 | > 200 µM | 195 µM | –
81 | C=C1C(=O)O[C@H]2C1C[C@@H](OC(C)=O)/C(C)=C/CC[C@@]1(C)O[C@H]21 (some centres undefined) | > 200 µM | 1.2 µM | –
